Like-named read-outs stand apart in the source and are kept apart here.
What was measured:
[1] = tested on: interferon regulatory factor (IRF) pathway in THP1-Dual™ cells; assay: THP1-Dual reporter gene assay (Agonist_THP1_EC50); assay type: cell-based; conditions: Homo sapiens, 20-24 hrs compound treatment, Lucia luciferase (IRF) readout
Description: This is the cellular reporter assay to evaluate compounds' agonism to interferon regulatory factor (IRF) pathway in THP1-Dual™ cells (InvivoGen, cat number thpd-nfis). THP1-Dual™ cells were derived from the human THP-1 monocyte cell line by stable integration lucia luciferase gene, a new secreted luciferase reporter gene, under the control of an ISG54 (interferon-stimulated gene) minimal promoter in conjunction with five interferon (IFN)-stimulated response elements. As a result, THP1-Dual™ cells allow the study of the IRF pathway, by assessing the activity of Lucia luciferase. Lucia luciferase protein is readily measurable in the cell culture supernatant when using QUANTI-Luc™ (InvivoGen, cat: rep-qlcg-500).
After 20-24 hrs compound treatment in THP1-Dual cells, the compounds' agonism to IRF pathway and cell toxicity were tested by measuring luminescence and OD 450 on an Envision plate reader.
On the day of experiment, 30 μL of test medium (RPMI 1640, 2 mM L-glutamine, 25 mM HEPES, […] heat-inactivated fetal bovine serum) was dispensed in a white 384-well plate (Grenier, cat: 781098) containing the serially diluted compounds (final 1% DMSO) transferred by the Echo550 machine. Then 30 μL of cell suspension (˜33,000 cells, 1.1×10^6 cells/mL) per well was added immediately by thermo multidrop combi dispenser for incubation 20-24 h at 37° C., […]. At the end of the incubation, 10 μL of cellular supernatant was transferred to proxiplate 384-plus plate for IRF detection, and then 10 μL of QUANTI-Luc™ Gold solution was added to the plate that proceeded with the measurement immediately. To detect cell viability, 30 μL of the CCK-8 working solution (Dojindo Molecular Technologies, cat: CK04-20) was added to the cell plate, which was Incubated for 2 hrs in the incubator to measure the absorbance at 450 nm using Envision.

[2] = tested on: human PBMC; assay: hPBMC cytokine release assay (Luminex, IFN-β); assay type: cell-based; conditions: read-out: Agonist_hPBMC_IFN-β_EC50
Description: This is the cytokines concentration detection with Luminex assay for human PBMC supernatant. Human peripheral blood mononuclear cells (PBMC) are treated by compounds with appropriate time. Multiple cytokines are released in the supernatant in response to the compound stimulation. Luminex assay can measure the cytokines concentration in supernatant and the compounds activity on human PBMC can be evaluated.
Frozen PBMC was thawed and cultured in PRMI1640 (GIBCO 11875-093) whole medium with […] Heat inactivated-FBS (HI—FBS), 1% NEAA, […] in CO2 incubator overnight. Cells were centrifuged at 400×g for 5 minutes at 4° C. and the pellet was re-suspended with complete RPMI1640 medium to concentration of 1×10^6 cells/ml in cell culture flask T75 (Thermo Fisher Scientific). Compounds were serially diluted with DMSO and distributed to 96-well flat bottom cell plate (Corning 3599) with Echo555. 90 μL/well PBMC cells were seeded into the plates with Multidrop (Thermo Fisher Scientific). After 24 hours of incubation in CO2 incubator, cells were centrifuged at 400×g for 5 minutes at room temperature, 80 μL supernatant each well was collected for cytokines release test with luminex assay of Human custom ProcartaPlex 5-plex kit (Thermo Fisher Scientific PPX-05). 10 μL supernatant or standards were added to a mixture of color-coded beads, 5 μL Biotinylated detection antibodies specific to the analytes of interest were added and formed an antibody-antigen sandwich. 10 μL Phycoerythrin (PE)-conjugated streptavidin is added to the plate and then read signal of each well on the Luminex 200™. The raw data was analyzed by Millipore Analyst Software and cytokine concentrations were generated accordingly. The EC50 of corresponding cytokine such as interferon-β (IFN-β) was calculated by the 4-parameter sigmoidal concentration response model fitting.

[3] = 24 hours incubation, IFN-β in supernatant

Row | SMILES | EC50 [1] [µM] | EC50 [2, 3] [µM] | EC50 ([2]; prior art compounds (Table 4), IFN-β) [µM]
1 | Cc1nn(CC=C(F)F)c(-c2n[nH]c(-c3nc(C(N)=O)cc4c3cnn4C)n2)c1O [Example 34, 4-[3-[2-(3,3-difluoroallyl)-4-hydroxy-5-methyl-pyrazol-3-yl]-1H-1,2,4-triazol-5-yl]-1-methyl-pyrazolo[4,3-c]pyridine-6-carboxamide] | 0.012 | 0.011 | –
2 | Cc1nn(CCc2ccccc2)c(-c2n[nH]c(-c3nc(C(N)=O)cc4c3cnn4C)n2)c1O [Example 82, 4-(5-(4-hydroxy-3-methyl-1-phenethyl-1H-pyrazol-5-yl)-2H-1,2,4-triazol-3-yl)-1-methyl-1H-pyrazolo[4,3-c]pyridine-6-carboxamide] | 0.008 | 0.029 | –
3 | COCc1ccc(CCn2nc(C)c(O)c2-c2n[nH]c(-n3nc(C(N)=O)c4cc(C)ncc43)n2)cc1 [Example 64, 1-[3-[4-hydroxy-2-[2-[4-(methoxymethyl)phenyl]ethyl]-5-methyl-pyrazol-3-yl]-11H-1,2,4-triazol-5-yl]-5-methyl-pyrazolo[3,4-c]pyridine-3-carboxamide] | 0.013 | 0.035 | –
4 | CCCCn1nc(C)c(O)c1-c1nc(-n2nc(C(N)=O)c3cc(C)ncc32)co1 [Example 59, 1-(2-(1-butyl-4-hydroxy-3-methyl-1H-pyrazol-5-yl)oxazol-4-yl)-5-methyl-1H-pyrazolo[3,4-c]pyridine-3-carboxamide] | 0.01 | 0.007 | –
5 | CCn1nc(C)c(O)c1-c1nc(-c2nc(C(N)=O)cc3c2cnn3C)co1 [AE01, reference compound] | – | – | 0.04
6 | Cc1cn2c(C(N)=O)c(F)c(-c3nc(-c4c(O)c(C)nn4CCC#N)n[nH]3)c2cn1 [Example 30, 8-[3-[2-(2-cyanoethyl)-4-hydroxy-5-methyl-pyrazol-3-yl]-1H-1,2,4-triazol-5-yl]-7-fluoro-3-methyl-pyrrolo[1,2-a]pyrazine-6-carboxamide] | 0.321 | – | –
7 | Cc1cc2c(C(N)=O)nn(-c3nc(-c4c(O)c(C)nn4CCc4cccc(C#N)c4)n[nH]3)c2cn1 [Example 60, 1-[3-[2-[2-(3-cyanophenyl)ethyl]-4-hydroxy-5-methyl-pyrazol-3-yl]-1H-1,2,4-triazol-5-yl]-5-methyl-pyrazolo[3,4-c]pyridine-3-carboxamide] | 0.023 | – | –
8 | Cc1cn2c(C(N)=O)nc(-c3nc(-c4c(O)c(C)nn4CCc4cccnc4)n[nH]3)c2cn1 [Example 72, 1-[3-[4-hydroxy-5-methyl-2-[2-(3-pyridyl)ethyl]pyrazol-3-yl]-1H-1,2,4-triazol-5-yl]-6-methyl-imidazo[1,5-a]pyrazine-3-carboxamide] | 0.015 | – | –
9 | COCCn1nc(C)c(O)c1-c1n[nH]c(-n2nc(C(N)=O)c3cc(C)ncc32)n1 [Example 42, 1-[3-[4-hydroxy-2-(2-methoxyethyl)-5-methyl-pyrazol-3-yl]-1H-1,2,4-triazol-5-yl]-5-methyl-pyrazolo[3,4-c]pyridine-3-carboxamide] | 0.045 | – | –
10 | Cc1cc2c(C(N)=O)nn(-c3nc(-c4c(O)c(C)nn4CCc4ccc(C#N)cc4)n[nH]3)c2cn1 [Example 61, 1-[3-[2-[2-(4-cyanophenyl)ethyl]-4-hydroxy-5-methyl-pyrazol-3-yl]-1H-1,2,4-triazol-5-yl]-5-methyl-pyrazolo[3,4-c]pyridine-3-carboxamide] | 0.047 | – | –
11 | Cc1cc2c(C(N)=O)nn(-c3nc(-c4c(O)c(C)nn4CCc4ccc(CO)cc4)n[nH]3)c2cn1 [Example 68, 1-[3-[4-hydroxy-2-[2-[4-(hydroxymethyl)phenyl]ethyl]-5-methyl-pyrazol-3-yl]-1H-1,2,4-triazol-5-yl]-5-methyl-pyrazolo[3,4-c]pyridine-3-carboxamide] | 0.027 | – | –
12 | Cc1cn2c(C(N)=O)c(F)c(-c3nc(-c4c(O)c(C)nn4CCc4ccccc4)n[nH]3)c2cn1 [Example 57, 7-fluoro-8-[3-[4-hydroxy-5-methyl-2-(2-phenylethyl)pyrazol-3-yl]-1H-1,2,4-triazol-5-yl]-3-methyl-pyrrolo[1,2-a]pyrazine-6-carboxamide] | 0.062 | – | –
13 | CCn1nc(C)c(O)c1-c1n[nH]c(-c2nc(C(N)=O)n3cc(Cl)ncc23)n1 [Example 18, 6-chloro-1-[3-(2-ethyl-4-hydroxy-5-methyl-pyrazol-3-yl)-1H-1,2,4-triazol-5-yl]imidazo[1,5-a]pyrazine-3-carboxamide] | 0.548 | – | –
14 | CCCCn1nc(C)c(O)c1-c1nc(-n2nc(C(N)=O)c3cc(C)ncc32)n(C)n1 [Example 49, 1-[5-(2-butyl-4-hydroxy-5-methyl-pyrazol-3-yl)-2-methyl-1,2,4-triazol-3-yl]-5-methyl-pyrazolo[3,4-c]pyridine-3-carboxamide] | 0.058 | – | –
15 | Cc1nn(CCn2ccnc2)c(-c2n[nH]c(-c3nc(C(N)=O)cc4c3cnn4C)n2)c1O [Example 23, 4-[3-[4-hydroxy-2-(2-imidazol-1-ylethyl)-5-methyl-pyrazol-3-yl]-1H-1,2,4-triazol-5-yl]-1-methyl-pyrazolo[4,3-c]pyridine-6-carboxamide] | 0.275 | – | –
16 | COc1cccc(CCn2nc(C)c(O)c2-c2n[nH]c(-n3nc(C(N)=O)c4cc(C)ncc43)n2)c1 [Example 54, 1-[3-[4-hydroxy-2-[2-(3-methoxyphenyl)ethyl]-5-methyl-pyrazol-3-yl]-1H-1,2,4-triazol-5-yl]-5-methyl-pyrazolo[3,4-c]pyridine-3-carboxamide] | 0.031 | – | –
17 | Cc1cc2c(C(N)=O)nn(-c3nc(-c4c(O)c(C)nn4CCc4ccccc4)nn3C)c2cn1 [Example 48, 1-[5-[4-hydroxy-5-methyl-2-(2-phenylethyl)pyrazol-3-yl]-2-methyl-1,2,4-triazol-3-yl]-5-methyl-pyrazolo[3,4-c]pyridine-3-carboxamide] | 0.064 | – | –
18 | CCn1nc(C)c(O)c1-c1n[nH]c(-c2nc(C(N)=O)n3cc(C)ncc23)n1 [Example 1, 1-[3-(2-ethyl-4-hydroxy-5-methyl-pyrazol-3-yl)-1H-1,2,4-triazol-5-yl]-6-methyl-imidazo[1,5-a]pyrazine-3-carboxamide] | 0.202 | – | –
19 | Cc1cc2c(C(N)=O)nn(-c3nc(-c4c(O)c(C)nn4CC=C(F)F)n[nH]3)c2cn1 [Example 63, 1-(3-(1-(3,3-difluoroallyl)-4-hydroxy-3-methyl-1H-pyrazol-5-yl)-1H-1,2,4-triazol-5-yl)-5-methyl-1H-pyrazolo[3,4-c]pyridine-3-carboxamide] | 0.026 | – | –
20 | Cc1nn(CCn2cncn2)c(-c2n[nH]c(-c3nc(C(N)=O)cc4c3cnn4C)n2)c1O [Example 39, 4-[3-[4-hydroxy-5-methyl-2-[2-(1,2,4-triazol-1-yl)ethyl]pyrazol-3-yl]-1H-1,2,4-triazol-5-yl]-1-methyl-pyrazolo[4,3-c]pyridine-6-carboxamide] | 0.225 | – | –
21 | COCc1cccc(CCn2nc(C)c(O)c2-c2n[nH]c(-n3nc(C(N)=O)c4cc(C)ncc43)n2)c1 [Example 65, 1-[3-[4-hydroxy-2-[2-[3-(methoxymethyl)phenyl]ethyl]-5-methyl-pyrazol-3-yl]-11H-1,2,4-triazol-5-yl]-5-methyl-pyrazolo[3,4-c]pyridine-3-carboxamide] | 0.017 | – | –
22 | COCc1ccc(CCn2nc(C)c(O)c2-c2nc(-n3nc(C(N)=O)c4cc(C)ncc43)co2)cc1 [Example 89, 1-[2-[4-hydroxy-2-[2-[4-(methoxymethyl)phenyl]ethyl]-5-methyl-pyrazol-3-yl]oxazol-4-yl]-5-methyl-pyrazolo[3,4-c]pyridine-3-carboxamide] | 0.055 | – | –
23 | Cc1cn2c(C(N)=O)c(F)c(-c3nc(-c4c(O)c(C)nn4CCc4cccnc4)n[nH]3)c2cn1 [Example 73, 7-fluoro-8-[3-[4-hydroxy-5-methyl-2-[2-(3-pyridyl)ethyl]pyrazol-3-yl]-1H-1,2,4-triazol-5-yl]-3-methyl-pyrrolo[1,2-a]pyrazine-6-carboxamide] | 0.039 | – | –

Source: US20250074913A1, “PYRAZOLE DERIVATIVES AS STING AGONISTS” (Hoffmann-La Roche Inc., priority 2022, published 2025)
